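Interpolation was linear, between the two tested concentrations surrounding the appropriate level; five concentrations were tested over 48 hours in 96-well plates. The concentration for 50% growth inhibition is given as GI50. TGI is the concentration that stops growth completely.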
Key:
Assay in all cases: NCI-60 cell line screen, 48 h
[1] = test system: COLO 205 colon
[2] = test system: NCI-H522 lung
[3] = test system: 786-0 renal
[4] = test system: UACC-62 melanoma
[5] = test system: CCRF-CEM leukemia
[6] = test system: OVCAR-4 ovarian
[7] = test system: SF-295 CNS
[8] = test system: MDA-MB-435
[9] = test system: MCF7 breast
[10] = test system: HOP-92 NSCLC
[11] = test system: SF-539 CNS
[12] = test system: HT29 colon
[13] = test system: HCC-2998 colon
[14] = test system: UACC-257 melanoma
[15] = test system: MOLT-4 leukemia
[16] = test system: NCI-H460 lung
[17] = test system: A549 NSCLC
[18] = test system: NCI-H226 lung
[19] = test system: HCT-15 colon
[20] = test system: PC-3 prostate
[21] = test system: OVCAR-8 ovarian
[22] = test system: CAKI-1 renal
[23] = test system: NCI-H23 lung
[24] = test system: T-47D breast
[25] = test system: SNB-75 CNS
[26] = test system: ACHN renal
[27] = test system: M14 melanoma
[28] = test system: UO-31 renal
[29] = test system: SK-MEL-28 melanoma
[30] = test system: U251 CNS
[31] = test system: LOX IMVI melanoma
[32] = test system: HL-60(TB) leukemia
[33] = test system: RPMI-8226 leukemia
[34] = test system: NCI/ADR-RES ovarian
[35] = test system: RXF 393 renal
[36] = test system: HCT-116 colon
[37] = test system: SW-620 colon
[38] = test system: DU-145 prostate
[39] = test system: A498 renal
[40] = test system: BT-549 breast
[41] = test system: KM12 colon
[42] = test system: OVCAR-5 ovarian
[43] = test system: SK-MEL-2 melanoma
[44] = test system: SK-OV-3 ovarian
[45] = test system: IGROV1 ovarian
[46] = test system: MALME-3M melanoma
[47] = test system: OVCAR-3 ovarian
[48] = test system: HS 578T breast
[49] = test system: SK-MEL-5 melanoma
[50] = test system: SNB-19 CNS
[51] = test system: HOP-62 NSCLC
[52] = test system: SF-268 CNS
[53] = test system: TK-10 renal
[54] = test system: EKVX NSCLC
[55] = test system: MDA-MB-231 breast
[56] = test system: SN12C renal

In the case of `Oc1ccccc1-c1nc2c3ccccc3c3ccccc3c2[nH]1`, the GI50 [1] is reported as 10.8 µM, the TGI [1] is reported as 22.7 µM and the GI50 [2] is reported as 3.07 µM. The TGI [2] was 10.3 µM, the GI50 [3] was 4.67 µM and the TGI [3] was 13.6 µM. For the same compound, the GI50 [4] was 3.1 µM, the TGI [4] was 12.4 µM and the GI50 [5] was 4.6 µM. It also gave a TGI [5] of 16.8 µM, a GI50 [6] of 12.7 µM and a TGI [6] of 25.3 µM. It also gave a GI50 [7] of 10.4 µM, a TGI [7] of 22.2 µM and a GI50 [8] of 6.23 µM. The TGI [8] was 18.7 µM, the GI50 [9] was 1.99 µM and the TGI [9] was 13.4 µM. For the same compound, the GI50 [10] was 1.55 µM, the TGI [10] was 6.48 µM and the GI50 [11] was 9.28 µM. For the same compound, the TGI [11] was 21.2 µM, the GI50 [12] was 14 µM and the TGI [12] was 27 µM. It also gave a GI50 [13] of 4.13 µM, a TGI [13] of 12.1 µM and a GI50 [14] of 14.1 µM. For the same compound, the TGI [14] was 27.1 µM, the GI50 [15] was 2.76 µM and the TGI [15] was 10.7 µM. The GI50 [16] was 3.39 µM, the TGI [16] was 12.1 µM and the GI50 [17] was 6.08 µM. The TGI [17] was 17.9 µM, the GI50 [18] was 7.85 µM and the TGI [18] was 20.9 µM. For the same compound, the GI50 [19] was 5.31 µM, the TGI [19] was 17.9 µM and the GI50 [20] was 3.49 µM. For the same compound, the TGI [20] was 14.8 µM, the GI50 [21] was 12.1 µM and the TGI [21] was 24.5 µM. It also gave a GI50 [22] of 1.67 µM, a TGI [22] of 9.44 µM and a GI50 [23] of 9.84 µM. The TGI [23] was 22.3 µM, the GI50 [24] was 1.89 µM and the TGI [24] was 12.8 µM. For the same compound, the GI50 [25] was 2.53 µM, the TGI [25] was 15.2 µM and the GI50 [26] was 4.26 µM. It also gave a TGI [26] of 15.6 µM, a GI50 [27] of 11.7 µM and a TGI [27] of 24 µM. It also gave a GI50 [28] of 2.28 µM, a TGI [28] of 14.6 µM and a GI50 [29] of 14.4 µM. For the same compound, the TGI [29] was 27.4 µM, the GI50 [30] was 10.5 µM and the TGI [30] was 22.2 µM. For the same compound, the GI50 [31] was 3.48 µM, the TGI [31] was 12 µM and the GI50 [32] was 3.66 µM. For the same compound, the TGI [32] was 14.9 µM, the GI50 [33] was 1.93 µM and the TGI [33] was 14.4 µM. The GI50 [34] was 8.43 µM, the TGI [34] was 25.6 µM and the GI50 [35] was 6.23 µM. The TGI [35] was 18.8 µM, the GI50 [36] was 10.5 µM and the TGI [36] was 22.3 µM. The GI50 [37] was 10.6 µM, the TGI [37] was 22.4 µM and the GI50 [38] was 13.6 µM. For the same compound, the TGI [38] was 26.5 µM, the GI50 [39] was 12.2 µM and the TGI [39] was 24.6 µM. It also gave a GI50 [40] of 9.06 µM, a TGI [40] of 21.7 µM and a GI50 [41] of 4.32 µM. It also gave a TGI [41] of 14.1 µM, a GI50 [42] of 15 µM and a TGI [42] of 28.3 µM. For the same compound, the GI50 [43] was 5.16 µM, the TGI [43] was 16.7 µM and the GI50 [44] was 8.68 µM. The TGI [44] was 23.7 µM, the GI50 [45] was 0.0614 µM and the TGI [45] was 14.4 µM. For the same compound, the GI50 [46] was 16.2 µM, the TGI [46] was 31.7 µM and the GI50 [47] was 11.1 µM. For the same compound, the TGI [47] was 23.1 µM, the GI50 [48] was 12.4 µM and the TGI [48] was 29.7 µM. The GI50 [49] was 12.1 µM, the TGI [49] was 24.4 µM and the GI50 [50] was 12.4 µM. The TGI [50] was 24.9 µM, the GI50 [51] was 3.93 µM and the TGI [51] was 15 µM. For the same compound, the GI50 [52] was 10.6 µM, the TGI [52] was 22.6 µM and the GI50 [53] was 9.26 µM. It also gave a TGI [53] of 20.8 µM, a GI50 [54] of 4.33 µM and a TGI [54] of 20.6 µM. It also gave a GI50 [55] of 1.96 µM, a TGI [55] of 4.44 µM and a GI50 [56] of 10.7 µM. For the same compound, the TGI [56] was 22.6 µM.

`COc1ccc(Cn2c(Cl)c(/C=C3/C(=O)Nc4ccccc43)c3cc(OC)c(C)cc32)cc1` gave a GI50 [1] of 2.33 µM, a TGI [1] of 5.52 µM and a GI50 [2] of 4.77 µM. The TGI [2] was > 100 µM, the GI50 [3] was 3.92 µM and the TGI [3] was 31.7 µM. It also gave a GI50 [4] of 2.17 µM, a TGI [4] of 18.7 µM and a GI50 [5] of 4.94 µM. For the same compound, the TGI [5] was > 100 µM, the GI50 [6] was 4.01 µM and the TGI [6] was > 100 µM. For the same compound, the GI50 [7] was 2.92 µM, the TGI [7] was 24.2 µM and the GI50 [8] was 2.06 µM. The TGI [8] was 6.08 µM, the GI50 [9] was 5.87 µM and the TGI [9] was > 100 µM. For the same compound, the GI50 [10] was 53.8 µM, the TGI [10] was > 100 µM and the GI50 [11] was 4.15 µM. For the same compound, the TGI [11] was > 100 µM, the GI50 [12] was 4.1 µM and the TGI [12] was > 100 µM. For the same compound, the GI50 [14] was 55.3 µM, the TGI [14] was > 100 µM and the GI50 [15] was 5.55 µM. For the same compound, the TGI [15] was > 100 µM, the GI50 [16] was 5.03 µM and the TGI [16] was > 100 µM. The GI50 [17] was 7.86 µM, the TGI [17] was > 100 µM and the GI50 [18] was 2.92 µM. The TGI [18] was 8.32 µM, the GI50 [19] was 4.15 µM and the TGI [19] was > 100 µM. The GI50 [20] was 6.22 µM, the TGI [20] was > 100 µM and the GI50 [21] was 5.96 µM. The TGI [21] was > 100 µM, the GI50 [22] was 5.81 µM and the TGI [22] was > 100 µM. For the same compound, the GI50 [23] was 4.78 µM, the TGI [23] was > 100 µM and the GI50 [24] was 25 µM. The TGI [24] was > 100 µM, the GI50 [26] was 8.11 µM and the TGI [26] was > 100 µM. For the same compound, the GI50 [27] was 3.27 µM, the TGI [27] was 15 µM and the GI50 [28] was 5.82 µM. The TGI [28] was > 100 µM, the GI50 [29] was 4.03 µM and the TGI [29] was > 100 µM. The GI50 [30] was 6.05 µM, the TGI [30] was > 100 µM and the GI50 [31] was 14.3 µM. For the same compound, the TGI [31] was > 100 µM, the GI50 [32] was 4.05 µM and the TGI [32] was > 100 µM. For the same compound, the GI50 [33] was 4.26 µM, the TGI [33] was 79 µM and the GI50 [34] was 2 µM. For the same compound, the TGI [34] was 4.77 µM, the GI50 [35] was 4.06 µM and the TGI [35] was > 100 µM. For the same compound, the GI50 [36] was 3.77 µM, the TGI [36] was 39.1 µM and the GI50 [37] was 3.46 µM. The TGI [37] was > 100 µM, the GI50 [38] was 18.1 µM and the TGI [38] was > 100 µM. The GI50 [40] was 17.2 µM, the TGI [40] was > 100 µM and the GI50 [41] was 3.99 µM. The TGI [41] was 23.8 µM, the GI50 [42] was 6.06 µM and the TGI [42] was > 100 µM. The GI50 [43] was 19.8 µM, the TGI [43] was > 100 µM and the GI50 [44] was 3.56 µM. For the same compound, the TGI [44] was > 100 µM, the GI50 [45] was 13.3 µM and the TGI [45] was > 100 µM. The GI50 [46] was 9.44 µM, the TGI [46] was > 100 µM and the GI50 [47] was 2.3 µM. For the same compound, the TGI [47] was 5.37 µM, the GI50 [48] was 2.32 µM and the TGI [48] was > 100 µM. The GI50 [49] was 2.44 µM, the TGI [49] was 16 µM and the GI50 [50] was 4.09 µM. The TGI [50] was > 100 µM, the GI50 [51] was 5.67 µM and the TGI [51] was > 100 µM. For the same compound, the GI50 [52] was 8.94 µM, the TGI [52] was > 100 µM and the GI50 [53] was 13.3 µM. For the same compound, the TGI [53] was > 100 µM, the GI50 [54] was 45.5 µM and the TGI [54] was > 100 µM. For the same compound, the GI50 [55] was 4.22 µM, the TGI [55] was > 100 µM and the GI50 [56] was 8.17 µM. For the same compound, the TGI [56] was > 100 µM.

Reference: PubChem BioAssay (NCI)
